Source: US8431704B2, “Quinoline or isoquinoline substituted P2X7 antagonists” (Janssen Pharmaceutica NV, priority 2008, dated 2013)

Target: T1, hP2X7 (Homo sapiens, UniProt Q99572)
T1 construct: expressed in transfected cells; host or cells: 1321N1 astrocytoma cells
T1 sequence (Q99572 1-595): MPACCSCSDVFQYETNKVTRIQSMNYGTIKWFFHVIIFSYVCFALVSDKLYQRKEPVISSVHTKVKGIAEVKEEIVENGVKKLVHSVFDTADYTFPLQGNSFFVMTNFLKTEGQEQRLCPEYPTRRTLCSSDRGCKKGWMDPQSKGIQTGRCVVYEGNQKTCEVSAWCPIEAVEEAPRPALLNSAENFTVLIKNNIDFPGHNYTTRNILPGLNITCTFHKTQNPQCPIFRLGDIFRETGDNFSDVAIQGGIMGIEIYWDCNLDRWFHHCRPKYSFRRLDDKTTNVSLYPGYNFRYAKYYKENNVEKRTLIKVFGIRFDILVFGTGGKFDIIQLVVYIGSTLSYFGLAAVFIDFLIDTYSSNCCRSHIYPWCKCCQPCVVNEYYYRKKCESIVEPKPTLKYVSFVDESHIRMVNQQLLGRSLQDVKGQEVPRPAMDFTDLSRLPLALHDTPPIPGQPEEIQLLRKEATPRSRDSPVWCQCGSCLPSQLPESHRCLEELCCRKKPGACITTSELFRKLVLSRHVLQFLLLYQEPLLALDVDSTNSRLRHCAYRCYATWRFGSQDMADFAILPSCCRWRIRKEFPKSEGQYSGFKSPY
Experiment: P2X7 antagonism: ligand-induced Ca2+ flux in 1321N1 astrocytoma cells overexpressing hP2X7
Type: cell-based
Conditions: pIC50 = -log(IC50), read-out: hP2RX7pIC50 (mean pIC50 values) (converted)
Procedure: Extracellular binding of ATP to P2X7 that is expressed in the cell-membrane opens the ligand gated cation channel and allows Ca^2+ entry into the cell. This ligand-induced Ca^2+ flux was measured in 1321N1 astrocytoma cells overexpressing hP2X7 for the compounds of the present invention.
The calcium assay kit used (Molecular Devices, R8090), provides a Ca^2+ sensitive dye together with a quenching dye. However, no specifications are given by the manufacturer. The kit most likely consists of a membrane permeable acetoxymethyl (AM) ester of a fluorescent Ca^2+ indicator, such as fluo-4 or fluo-3. Upon cellular uptake, the AM esters get cleaved by esterases, liberating the Ca^2+-sensitive dye which can then bind calcium. The dyes have an absorption spectrum compatible with excitation at 488 nm by argon laser sources and a large fluorescence intensity increase in response to Ca^2+ binding without an accompanying spectral shift. Emission wavelength is in the range of 510-560 nm.
The fluorescence, and thus the changes in intracellular [Ca^2+] in the 1321N1 cells was monitored in time before and after addition of the agonist. The effect of the antagonist was measured as % control and as IC50.

| Structure (SMILES) | IC50 |
| --- | --- |
| O=C(NCC(c1ccc(C(F)(F)F)nc1)N1CCC(F)(F)CC1)c1cccc2ncccc12 (single isomer, unassigned) [Compound 10] | 43.7 nM |
| O=C(NCC(c1ccc(C(F)(F)F)nc1)N1CCC(F)(F)CC1)c1cccc2ncccc12 (single isomer, unassigned) [Compound 11] | 52.5 nM |
| O=C(NCC(c1cnc(C(F)(F)F)nc1)N1CCC(F)(F)CC1)c1cccc2ncccc12 (single isomer, unassigned) [Compound 47] | 38 nM |
| O=C(NCC(c1ccc(C(F)(F)F)nc1)N1CCC(F)(F)CC1)c1cccc2ncccc12 (stereo not drawn) [Compound 1] | 58.9 nM |
| O=C(NCC(c1ccc(Br)nc1)N1CCC(F)(F)CC1)c1cccc2ncccc12 (stereo not drawn) [Compound 2] | 21.4 nM |
| O=C(NCC(c1cccnc1Cl)N1CCC(F)(F)CC1)c1cccc2ncccc12 (stereo not drawn) [Compound 3] | 3630 nM |
| COc1cc(C(=O)NCC(c2ccc(C(F)(F)F)nc2)N2CCC(F)(F)CC2)nc2ccccc12 (stereo not drawn) [Compound 12] | 3240 nM |
| O=C(NCC(c1ccc(C(F)(F)F)nc1)N1CCC(F)(F)CC1)c1ccc2ccccc2n1 (stereo not drawn) [Compound 14] | 178 nM |
| O=C(NCC(c1ccc(C(F)(F)F)nc1)N1CCC(F)(F)CC1)c1cccc2cnccc12 (stereo not drawn) [Compound 16] | 224 nM |
| CCCc1cc(C(=O)NCC(c2ccc(C(F)(F)F)nc2)N2CCC(F)(F)CC2)c2ccccc2n1 (stereo not drawn) [Compound 18] | 55 nM |
| CCc1cc2cc(C(=O)NCC(c3ccc(C(F)(F)F)nc3)N3CCC(F)(F)CC3)ccc2nc1C (stereo not drawn) [Compound 24] | 5250 nM |
| O=C(NCC(c1ccccn1)N1CCC(F)(F)CC1)c1cccc2ncccc12 (stereo not drawn) [Compound 25] | > 10000 nM |
| O=C(NCC(c1ccc(C(F)(F)F)nc1)N1CCC(c2ccccc2)CC1)c1cccc2ncccc12 (stereo not drawn) [Compound 27] | > 10000 nM |
| O=C(NCC(c1ccc(C(F)(F)F)nc1)N1CCOCC1)c1cccc2ncccc12 (stereo not drawn) [Compound 31] | 107 nM |
| O=C(NCC(c1cnc(C(F)(F)F)nc1)N1CCC(F)(F)CC1)c1cccc2nc(NCCCO)ccc12 (stereo not drawn) [Compound 40] | 34.7 nM |
| COc1ccc2c(C(=O)NCC(c3cnc(C(F)(F)F)nc3)N3CCC(F)(F)CC3)cccc2n1 (stereo not drawn) [Compound 41] | 45.7 nM |
| O=C(NCC(c1cnc(C(F)(F)F)nc1)N1CCC(F)(F)CC1)c1cccc2nc(NCC3CC3)ccc12 (stereo not drawn) [Compound 42] | 38 nM |
| O=C(NCC(c1cnc(C(F)(F)F)nc1)N1CCCC1)c1cccc2ncccc12 (stereo not drawn) [Compound 45] | 955 nM |
| O=C(NCC(c1cnc(C(F)(F)F)nc1)N1CCCCCC1)c1cccc2ncccc12 (stereo not drawn) [Compound 52] | 19.1 nM |

Other lines, results leading:

| IC50 | Structure (SMILES) |
| --- | --- |
| 66.1 nM | O=C(NC[C@H](c1cnc(C(F)(F)F)nc1)N1CCOCC1)c1cccc2nc(NC3CC3)ccc12 (single isomer, unassigned) [Compound 174] |
| 49 nM | O=C(NCC(c1cnc(C(F)(F)F)nc1)N1CCC(F)(F)CC1)c1cccc2nc(N3CCC(O)C3)ccc12 (stereo not drawn) [Compound 56] |
| 18.2 nM | O=C(NCC(c1cnc(C(F)(F)F)nc1)N1CCCC(F)(F)C1)c1cccc2ncccc12 (stereo not drawn) [Compound 66] |
| 30.9 nM | O=C(NCC(c1cnc(C(F)(F)F)nc1)N1CCCC(F)C1)c1cccc2ncccc12 (stereo not drawn) [Compound 71] |
| 302 nM | CC1CN(C(CNC(=O)c2cccc3ncccc23)c2cnc(C(F)(F)F)nc2)CCO1 (stereo not drawn) [Compound 72] |
| 50.1 nM | CC1CCCCN1C(CNC(=O)c1cccc2ncccc12)c1cnc(C(F)(F)F)nc1 (stereo not drawn) [Compound 73] |
| 44.7 nM | O=C(NCC(c1cnc(C(F)(F)F)nc1)N1CCCOCC1)c1cccc2nc(N3CCOCC3)ccc12 (stereo not drawn) [Compound 87] |
| 85.1 nM | O=C(NCC(c1cnc(C(F)(F)F)nc1)N1CCCOCC1)c1cccc2nc(NCCO)ccc12 (stereo not drawn) [Compound 89] |
| 87.1 nM | O=C(NCC(c1cnc(C(F)(F)F)nc1)N1CCCOCC1)c1cccc2nc(NCCCO)ccc12 (stereo not drawn) [Compound 90] |
| 81.3 nM | O=C(NCC(c1cnc(C(F)(F)F)nc1)N1CCCOCC1)c1cccc2nc(NCC3CCOCC3)ccc12 (stereo not drawn) [Compound 94] |
| 44.7 nM | O=C(NCC(c1cnc(C(F)(F)F)nc1)N1CCCOCC1)c1cccc2nc(NC3CC3)ccc12 (stereo not drawn) [Compound 95] |
